Some test systems named below: HCT-15 colon; RXF 393 renal; DLD-1 colon; SNB-78 CNS; NCI-H226 lung; A549 NSCLC; KM20L2 colon; DMS 273 small cell lung; HCT-116 colon; M19-MEL melanoma; TK-10 renal.
Holding throughout (test): inhibition of tumour cell growth, NCI panel, 48 h

Molecules are shown by their SMILES. “And” between values parts separate entries of the source, which are not always exact repeats. Identical values can stand only once.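 Where inhibition never reached the appropriate level, the endpoint shown equals the highest concentration tested. Otherwise, values were interpolated linearly from a five-concentration, 48-hour dose response in 96-well plates. GI50: concentration for 50% inhibition of growth. At the TGI there is no net growth.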 Where a SMILES comes first, the peptide text is derived from it. The star is where a group is joined. Cbz = O=C(OCc1ccccc1)*

`CC(=O)Oc1c(OC(C)=O)c(-c2ccc(O)c(O)c2)c(O)c(O)c1-c1ccc(O)cc1`: the GI50 was 76.3 µM in the assay on HCT-15 colon; over 100 µM in the assay with RXF 393 renal; over 100 µM in the assay with SNB-78 CNS; 79.7 µM in the assay with NCI-H226 lung; 40.7 µM in the assay with KM20L2 colon; 67.1 µM in the assay with DMS 273 small cell lung. Also, the GI50 was 36.1 µM in the assay on HCT-116 colon and 18.1 µM in the assay on M19-MEL melanoma. Further, the TGI in the assay with HCT-15 colon, in the assay on RXF 393 renal, in the assay with DLD-1 colon, with SNB-78 CNS, with NCI-H226 lung and with A549 NSCLC was over 100 µM each time. Also, the TGI with KM20L2 colon is over 100 µM; in the assay on DMS 273 small cell lung, over 100 µM; with HCT-116 colon, over 100 µM; in the assay on M19-MEL melanoma, 53.7 µM and 68.5 µM.

On to `COc1cc2c(cc1OC)C(Cl)C(c1cc(OC)c(OC)c(OC)c1)=C2Cl` (configuration not stated), for which the TGI with HCT-15 colon turned out to be 49.4 µM; in the assay on DLD-1 colon, 51.4 µM; in the assay with TK-10 renal, 62.2 µM; in the assay with SNB-78 CNS it was 46.4 µM; with NCI-H226 lung it was 41.4 µM; with KM20L2 colon, 36.6 µM. Further, the values for the TGI with DMS 273 small cell lung and with M19-MEL melanoma were 34.6 µM and 28.7 µM, respectively.

Turning to `Cc1ccc2[nH]c3c(C)c4ccncc4c(C)c3c2c1`, the TGI in the assay with HCT-15 colon was 2.22 µM; in the assay with RXF 393 renal, 0.513 µM; in the assay with DLD-1 colon, 2.34 µM; in the assay with TK-10 renal it was 14.2 µM; with SNB-78 CNS, 4.64 µM; with NCI-H226 lung, 7.59 µM. Besides, the TGI was 2.63 µM in the assay with A549 NSCLC; 5.57 µM in the assay on KM20L2 colon; 2.13 µM in the assay with DMS 273 small cell lung; 1.61 µM in the assay on HCT-116 colon; 2.75 µM with M19-MEL melanoma.

As for `O=C1c2cc(CCl)sc2C(=O)c2ccsc21`, the TGI turned out to be 1.48 µM in the assay on HCT-15 colon; 0.883 µM in the assay with RXF 393 renal; 2.16 µM in the assay with DLD-1 colon; 3.41 µM in the assay on TK-10 renal; 0.746 µM with SNB-78 CNS; 3.1 µM with NCI-H226 lung. Moreover, the TGI in the assay with A549 NSCLC stood at 0.417 µM; in the assay on KM20L2 colon it was 2.84 µM; in the assay with DMS 273 small cell lung, 1.12 µM; in the assay on HCT-116 colon it was 0.39 µM.

As to `COc1cc(CC2c3cc(OC)c(OC)cc3CCN2C)c(Oc2cc3c(cc2OC)-c2c(OC)c(OC)c(OC)c4c2C(C3)N(C)CC4)cc1OC` (configuration not stated), the TGI in the assay on HCT-15 colon was determined as 23.4 µM; in the assay on RXF 393 renal it was 14.9 µM; in the assay with DLD-1 colon, 29.8 µM; with TK-10 renal, 29.5 µM; in the assay with SNB-78 CNS, 34.5 µM; in the assay with NCI-H226 lung, 32.7 µM. Besides, the TGI came out at 30.6 µM in the assay on A549 NSCLC; 17.8 µM in the assay with KM20L2 colon; 26.2 µM in the assay on DMS 273 small cell lung; 24.3 µM in the assay on HCT-116 colon; 28.6 µM in the assay with M19-MEL melanoma.

As for `CCOC(=O)C(C)NC(=O)C(C)NC(=O)C(C)NC(=O)C(C)NC(=O)C(C)NC(=O)C(C)NC(=O)C(C)NC(=O)OCc1ccccc1` (configuration not stated) (Cbz-AAAAAAA-OEt; configuration not given here), the TGI with HCT-15 colon, in the assay with RXF 393 renal, in the assay on TK-10 renal, with NCI-H226 lung, with A549 NSCLC and in the assay on HCT-116 colon was over 100 µM in each case.

`O=C(/C=C/c1ccc(O)c(O)c1)OCCOC(=O)/C=C/c1ccc(O)c(O)c1`: the TGI in the assay on HCT-15 colon was over 100 µM; with RXF 393 renal, 51.9 µM; with TK-10 renal, over 100 µM; in the assay with NCI-H226 lung, 96.3 µM; in the assay on A549 NSCLC, over 100 µM; with HCT-116 colon, 46.7 µM.

On to `CC(C)[Si]1(C(C)C)OCC2OC(n3ccc(=O)[nH]c3=O)C(O)(CO)C2O[Si](C(C)C)(C(C)C)O1` (configuration not stated), for which the TGI in the assay with HCT-15 colon worked out at 36.2 µM; in the assay with RXF 393 renal, 30.4 µM; in the assay on TK-10 renal, 31.3 µM; in the assay with NCI-H226 lung it was 36.8 µM; in the assay with A549 NSCLC it was 27.9 µM; with HCT-116 colon it was 27.7 µM.

On to `CCN(CC)CCNc1ccc(C)c2sc3ccc(O)cc3c(=O)c12`, for which the TGI in the assay on HCT-15 colon is 2.72 µM; in the assay on RXF 393 renal, 5.82 µM; in the assay on DLD-1 colon, 3.47 µM; in the assay on TK-10 renal, 9.95 µM; in the assay on SNB-78 CNS, 7.88 µM; in the assay on NCI-H226 lung, 2 µM. Further, the TGI in the assay on A549 NSCLC is 1.91 µM; with KM20L2 colon it was 5.46 µM; in the assay with DMS 273 small cell lung, 1.91 µM; in the assay with HCT-116 colon it was 2.56 µM; in the assay on M19-MEL melanoma, 2.36 µM.

For the compound `CN1OC(=O)N(C)C1c1ccccc1` (configuration not stated), the TGI in the assay on HCT-15 colon, with RXF 393 renal, in the assay on DLD-1 colon, with SNB-78 CNS, in the assay with NCI-H226 lung and with A549 NSCLC was over 100 µM in each case. Further, the TGI with KM20L2 colon, in the assay on DMS 273 small cell lung, in the assay on HCT-116 colon and with M19-MEL melanoma was over 100 µM in each case.

In the case of `CC(=O)c1cccc(NC2C(N)C(NC(=O)N(C)C)(C(C)O)C(C)(O)C2(O)COC(=O)c2c(C)cccc2O)c1` (configuration not stated), the TGI in the assay with HCT-15 colon came to 1.01 µM; in the assay with TK-10 renal it was 0.118 µM; with SNB-78 CNS it was 0.0541 µM; in the assay with NCI-H226 lung it was 0.00141 µM; with A549 NSCLC, 0.347 µM; in the assay with KM20L2 colon it was 0.372 µM. The TGI in the assay with HCT-116 colon is 0.0437 µM and 0.185 µM; in the assay on M19-MEL melanoma, 0.203 µM.

As to `C=C1C(=O)OC2/C=C(\C)C(O)/C=C\C(C)(O)CC(OC(=O)/C(C)=C/C)C12` (configuration not stated), the TGI with HCT-15 colon is 33.8 µM; with RXF 393 renal, 42.6 µM; with DLD-1 colon it was 28.3 µM; with TK-10 renal, over 100 µM; in the assay on SNB-78 CNS it was over 100 µM; in the assay with NCI-H226 lung it was over 100 µM. In addition, the TGI in the assay on A549 NSCLC is over 100 µM; in the assay with KM20L2 colon it was over 38.5 µM; in the assay on DMS 273 small cell lung, 37.3 µM; in the assay with HCT-116 colon, 30 µM; in the assay with M19-MEL melanoma, 37 µM.

Regarding `Nc1ccn(C2OC(COP(=O)(O)Oc3ccccc3)C(O)C2O)c(=O)n1` (configuration not stated), the TGI in the assay with HCT-15 colon, in the assay on RXF 393 renal, with DLD-1 colon, with SNB-78 CNS, in the assay on NCI-H226 lung and with A549 NSCLC was over 100 µM in each case. Further, the TGI in the assay with KM20L2 colon, with DMS 273 small cell lung, in the assay with HCT-116 colon and in the assay with M19-MEL melanoma was over 100 µM each time.

Take `Cc1ccc(/C=N/Nc2ncccn2)s1`: the TGI with HCT-15 colon, in the assay with RXF 393 renal, with TK-10 renal, in the assay on NCI-H226 lung, in the assay with A549 NSCLC and in the assay with HCT-116 colon was over 100 µM throughout.

As to `S=C1C=C(c2ccccc2)Sc2ccccc2N1`, the TGI in the assay with HCT-15 colon, with RXF 393 renal, in the assay with TK-10 renal, with NCI-H226 lung, in the assay with A549 NSCLC and in the assay with HCT-116 colon was over 100 µM each time.

As to `Cc1n[nH]c(=O)n1N=C(c1ccccc1)c1ccccc1`, the TGI in the assay on HCT-15 colon, in the assay with RXF 393 renal, in the assay on TK-10 renal, in the assay with NCI-H226 lung, in the assay on A549 NSCLC and in the assay on HCT-116 colon was over 100 µM throughout.

As to `COC(=O)C1=C(C)NC(C)=C([N+](=O)[O-])C1c1cccc(NO)c1` (configuration not stated), the TGI in the assay with HCT-15 colon was 9.77 µM; in the assay with RXF 393 renal, over 85.4 µM; in the assay on TK-10 renal, 26 µM; with NCI-H226 lung, over 47.3 µM; with A549 NSCLC it was over 89.6 µM; in the assay with HCT-116 colon, 10.5 µM.

On to `C[C@@H]1C(O)CC[C@H](C)C12CC=CC2=O` (some centres not stated), for which the TGI with HCT-15 colon, in the assay with RXF 393 renal, in the assay on TK-10 renal, in the assay with NCI-H226 lung, in the assay on A549 NSCLC and in the assay on HCT-116 colon was over 100 µM each time.

On to `c1ccc(-c2cc(-c3cc(-c4ccccc4)n(-c4ccccc4)n3)nn2-c2ccccc2)cc1`, for which the TGI with HCT-15 colon, with RXF 393 renal, in the assay on TK-10 renal, with NCI-H226 lung, with A549 NSCLC and in the assay on HCT-116 colon was over 100 µM each time.

For the compound `Cc1nc(-c2nc([N+](=O)[O-])c([N+](=O)[O-])[nH]2)cs1`, the TGI in the assay with RXF 393 renal, with DLD-1 colon, in the assay with TK-10 renal, with SNB-78 CNS, in the assay on NCI-H226 lung and with A549 NSCLC was over 100 µM throughout. The TGI in the assay with KM20L2 colon, in the assay with DMS 273 small cell lung, in the assay on HCT-116 colon and in the assay with M19-MEL melanoma was over 100 µM in each case.

The values above are taken from PubChem BioAssay (NCI).
